{"source": "patent US20050037989A1", "about": "“Inhibition of gene function by delivery of polynucleotide-based gene expression inhibitors to mammalian cells in vivo” (priority 2001, published 2005)", "key": {"[1]": {"test_system": "mouse HMG CoA reductase mRNA", "assay": "Serum triglyceride levels after tail vein injection of siRNA against HMG CoA reductase", "assay_type": "in vivo, Apoetm1Unc mice", "settings": "for Triglyceride levels: absorbance at 520 nm", "method": "Group A (series2) mice (5 mice) were each injected with 50 μg of an siRNA directed against mouse HMG CoA reductase mRNA. Group B (Series 1) mice (5 mice) were an uninjected control group. Group A and Group B animals were bled 7 days before, 2 days after, 4 days after, and 7 days after the injection. Serum samples were stored at −20° C. until all timepoints had been collected. Each group's serum samples from a given time-point were pooled prior to the triglyceride assays. Triglyceride assays were performed in quintuplicate.\nA total of 50 μg of siRNA-HMGCR was dissolved in 2.2 ml Ringer's solution (147 mM NaCl, 4 mM KCl, 1.13 mM CaCl2), and injected into the tail vein of ApoE (−/−) mice over 7-12 seconds. Control mice were not injected and are referred to here as naive. Each mouse was bled from the retro-orbital sinus at various times prior to and after injection. Cells and clotting factors were pelleted from the blood to obtain serum. The serum triglyceride levels were then assayed by a enzymatic, colorimetric assay using the Infinity Triglyceride Reagent (Sigma Co.).\nTriglyceride assays. Serum samples were diluted 1:100 in the Infinity Triglyceride Reagent (2 μl in 200 μl) in a clear, 96-well plate. Each assay plate was then incubated at 37° C. for five minutes, removed and allowed to cool to room temperature. Absorbance was measured at 520 nm using a SpectraMax Plus plate reader (Molecular Devices, Inc). Background absorbance (no serum added) was subtracted from each reading and the resulted data was plotted versus timepoint."}, "[2]": {"test_system": "HMGCR mRNA in primary hepatocytes", "assay": "HMGCR mRNA in primary hepatocytes cultured with anti-HMGCR siRNA and/or atorvastatin (qPCR)", "assay_type": "cell-based, C57B6 mice", "settings": "siRNA alone, 24 hours", "method": "qPCR assays. Quantitative, real-time PCR was performed using the Bio-Rad icycler system and iCycler reagents as recommended by the manufacturer. The primers used to amplify HMGCR sequences were SEQ ID 17 and SEQ ID 31.\nTotal RNA from these cells was isolated and transcribed into cDNA using an oligo-dT primer and reverse transcriptase. Subsequently, HMGCR levels were assayed using quantitative, real-time PCR."}}, "note": "d = 2'-deoxy (DNA); r = 2'-OH (RNA)", "data": [{"substance": "siRNA-HMGCR: annealed oligomers SEQ ID 25 and SEQ ID 26, positions 2324-2344 of murine HMG CoA reductase reading frame (Examples 16, 18) (chain 1 ACAUUGUCACUGCUAUCUATT; chain 2 UAGAUAGCAGUGACAAUGUTT; sugars from the 5' end r19 d2, backbone not given here; listed as Mus musculus)", "values": [{"measurement": "triglyceride levels (in words)", "setting": "[1]; 50 μg siRNA tail vein, after 7 days", "result": "returned to normal levels"}, {"measurement": "triglyceride levels reduced", "setting": "[1]; 50 μg siRNA tail vein, after two days", "result": 62, "unit": "%"}, {"measurement": "triglyceride levels reduced", "setting": "[1]; 50 μg siRNA tail vein, second value, printed again as after two days", "result": 56, "unit": "%"}, {"measurement": "Triglyceride levels", "setting": "[1]; day +2, pooled serum", "result": "0.082 ± 0.006"}, {"measurement": "Triglyceride levels", "setting": "[1]; day +4, pooled serum", "result": "0.095 ± 0.005"}, {"measurement": "Triglyceride levels", "setting": "[1]; day +7, pooled serum", "result": "0.189 ± 0.012"}, {"measurement": "Triglyceride levels", "setting": "[1]; day −7 (before injection), pooled serum", "result": "0.218 ± 0.008"}, {"measurement": "HMGCR mRNA, % of that seen in control cells", "setting": "[2]", "result": "approximately 20%"}]}]}
